In brackets after ≈: the same amount, converted by molar mass.
Assays:
pathogenic bacteria = assay: growth inhibition of pathogenic bacteria (general statement); type: cell-based
Source text: (§1) Table V summarizes the minimal inhibitory concentrations (MIC) at which factor S-1 inhibits certain organisms as determined by standard agar-dilution assays. In Table V, the activity of factor S-1 is compared with that of rifampin.

Micrococcus luteus = assay: antibiotic activity of column fractions; type: cell-based
Experimental: Whole broth (100 L), prepared in a manner similar to that of Example 1, Section B, was filtered using a filter aid (Hyflo Supercel, Johns-ManvilleCorp.). The filtered broth (86 L) is adjusted to pH 2 with 5N hydrochloric acid and then is extracted twice with ethyl acetate (1/2 volumes). The ethyl acetate extracts are concentrated under vacuum to give an oily residue (49 g). This residue is dissolved in methanol and placed on a 10-L Diaion HP-20 column (Mitsubishi Industries). The column is washed with water (500 ml) and eluted with acetonitrile:water (30 L of 3:7 and 50 L of 3:2) and acetonitrile (20 L). Elution is carried out at a rate of 100 ml/min., collecting 4-liter fractions. Fractions are tested for antibiotic activity against Micrococcus luteus, Escherichia coli, and Neurospora crassa.
Factor S-1 is further purified in 200-mg portions by dissolving it in methanol and chromatographing the solution on a 1"×30-cm column packed with Zorbax ODS (12μ) (E. I. duPont). The column is eluted at 10 ml/min with 45% acetonitrile in 0.01% trifluoroacetic acid (400 ml) and then with a 400-ml gradient of from 45%-100% acetonitrile in 0.01% trifluoroacetic acid. Fractions are checked by UV absorption at 264 nm and by disc bioassay against M. luteus. Fractions containing only factor S-1 are combined, concentrated and lyophilized to dryness. […]

[1] = stability in aqueous methanol solutions; type: physicochemical
Experimental: (7) Stability: Stability studies on factor S-1 in aqueous methanol solutions were run at pH levels of 2,5,7 and 9 and at temperatures of 4° C., 25° C., and 37° C.

[2] = tested on: Enterobacter aerogenes EB17; assay: standard agar-dilution MIC assay; type: cell-based; conditions: Klebsiella aerogenes; agar dilution; Enterobacter aerogenes EB17; read-out: MIC
Source text: as §1

[3] = tested on: Staphylococcus aureus V41; assay: standard agar-dilution MIC assay; type: cell-based; conditions: agar dilution; Staphylococcus aureus V41; read-out: MIC
Source text: as §1

Shigella sonnei N9 = assay: standard agar-dilution MIC assay; type: cell-based
Source text: as §1

[4] = tested on: Pseudomonas aeruginosa Ps72; assay: standard agar-dilution MIC assay; type: cell-based
Source text: as §1

[5] = tested on: Pseudomonas aeruginosa X528; assay: standard agar-dilution MIC assay; type: cell-based; conditions: agar dilution; Pseudomonas aeruginosa X528; read-out: MIC
Source text: as §1

[6] = tested on: Staphylococcus aureus NRRL B313; assay: standard agar-dilution MIC assay; type: cell-based; conditions: NRRLB313; agar dilution; Staphylococcus aureus NRRL B313; read-out: MIC
Source text: as §1

[7] = tested on: Streptococcus sp. group D 9960; assay: standard agar-dilution MIC assay; type: cell-based; conditions: agar dilution; Streptococcus sp. group D 9960; read-out: MIC
Source text: as §1

[8] = tested on: Pseudomonas aeruginosa Ps18; assay: standard agar-dilution MIC assay; type: cell-based
Source text: as §1

[9] = tested on: Staphylococcus aureus X400; assay: standard agar-dilution MIC assay; type: cell-based; conditions: agar dilution; Staphylococcus aureus X400; read-out: MIC
Source text: as §1

CC(=O)OC1C(C)C(O)C=COC2(C)Oc3c(C)c(O)c4c(c3C2=O)C(=O)C(C)=C(NC(=O)C=CC=CC(C)C(O)C(C)C(O)C1C)C4=O (stereo not shown) [Factor S-1]
inhibition of growth of pathogenic bacteria (pathogenic bacteria): inhibits the growth of a broad spectrum of pathogenic bacteria, especially gram-positive bacteria | activity against M. luteus (Micrococcus luteus): active | stability versus temperature ([1]; 4° C., 25° C. and 37° C.): most stable at 4° C., less stable at 25° C., and least stable at 37 °C | stability versus pH ([1]; pH 2, 5, 7 and 9): more stable in slightly acidic, neutral and basic solutions than in strongly acidic solutions (pH=2) | MIC [2]: 32 mg/L (≈ 46.9 µM) | MIC [3]: 0.015 mg/L (≈ 0.022 µM) | MIC (Shigella sonnei N9): 8 mg/L (≈ 11.7 µM) | MIC [4]: 16 mg/L (≈ 23.5 µM) | MIC [5]: 16 mg/L (≈ 23.5 µM) | MIC [6]: 0.015 mg/L (≈ 0.022 µM) | MIC [7]: 1 mg/L (≈ 1.47 µM) | MIC [8]: > 128 mg/L | MIC [9]: 0.06 mg/L (≈ 0.088 µM)
